# Assay: Evaluation of heat resistance by thermogravimetric analyzer (TGA), primary thermal decomposition temperature
# Assay type: physicochemical
# Settings: N2 atmospheric environment, FIG. 9
# Description: In this experiment, the evaluation of heat resistance was defined as an extrapolated intersection point (primary thermal decomposition temperature) between a starting mass reference line and the tangent line of the maximum slope point in the first mass reduction section of a mass loss curve measured by a thermogravimetric analyzer (TGA) in an N2 atmospheric environment.
# In the present disclosure, it is determined that when the primary thermal decomposition temperature of the compound has a value higher than the primary thermal decomposition temperature of the material before anion substitution, the heat resistance has increased.
SMILES,Td (thermal decomposition temperature),heat resistance compared with the material before anion substitution
C=C(C)C(=O)OCC[N+](C)(C)CCCCCCCCCC.[Br-] [Comparative Example 4-1],about 230 °C,
C=C(C)C(=O)OCC[N+](C)(C)CCCCCCCCCC.O=S(=O)([O-])O [Example 4-1],,heat resistance is improved
